# Laboratory results published in patent US11014911B2, “CDK2 inhibitors” (Pfizer Inc., priority 2019, dated 2021).
# pKi: −log10 of the molar value.
# How the values were obtained:
# [1] = target: CDK2/Cyclin E1 full length (Homo sapiens (Human), UniProt P24941); assay: CDK2/Cyclin E1 full length mobility shift assay; type: biochemical
# GSK3β (H350L) = GSK3β (H350L) (Homo sapiens (Human), UniProt P49841); details: read-out: GSK3β Ki
# Sequence of GSK3β (H350L) (P49841 whole entry, stated change not applied): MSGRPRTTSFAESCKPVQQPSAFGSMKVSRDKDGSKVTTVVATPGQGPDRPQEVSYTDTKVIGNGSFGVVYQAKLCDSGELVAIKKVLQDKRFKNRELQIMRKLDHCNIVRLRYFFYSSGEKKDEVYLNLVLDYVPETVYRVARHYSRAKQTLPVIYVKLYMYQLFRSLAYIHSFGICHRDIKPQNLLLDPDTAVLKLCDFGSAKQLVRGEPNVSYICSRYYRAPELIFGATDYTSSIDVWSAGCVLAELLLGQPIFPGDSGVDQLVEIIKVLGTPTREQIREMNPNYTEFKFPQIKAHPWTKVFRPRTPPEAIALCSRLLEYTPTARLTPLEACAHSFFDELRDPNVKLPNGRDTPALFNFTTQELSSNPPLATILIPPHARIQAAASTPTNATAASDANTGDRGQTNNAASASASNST
# Method: The assay was initiated with the addition of ATP, following 15 minutes pre-incubation of enzyme and inhibitor at room temperature in the reaction mixture. The reaction was stopped after 30 minutes at room temperature by the addition of 50 μL of 80 mM EDTA.
Compound,pKi [1],pKi (GSK3β (H350L))
"CC(C)NC(=O)O[C@@H]1CC[C@H](c2cc(NC(=O)c3cnnn3C)n[nH]2)C1 [Example 262, (1R,3S)-3-(3-{[(1-methyl-1H-1,2,3-triazol-5-yl)carbonyl]amino}-1H-pyrazol-5-yl)cyclopentyl propan-2-ylcarbamate]",9.19,< 7.32
"CCCNC(=O)O[C@@H]1CC[C@H](c2cc(NC(=O)Cc3ccc(OC)cc3S(C)(=O)=O)n[nH]2)C1 [Example 212, (1R,3S)-3-[3-({[4-methoxy-2-(methylsulfonyl)phenyl]acetyl}amino)-1H-pyrazol-5-yl]cyclopentyl propylcarbamate]",9.17,7.11
"CC[C@H](C)NC(=O)O[C@@H]1CC[C@H](c2cc(NC(=O)Cc3cn4ccsc4n3)n[nH]2)C1 [Example 355, (1R,3S)-3-{3-[(imidazo[2,1-b][1,3]thiazol-6-ylacetyl)amino]-1H-pyrazol-5-yl}cyclopentyl (2S)-butan-2-ylcarbamate]",8.95,7.74
"COc1ccc(S(C)(=O)=O)c(CC(=O)Nc2cc([C@H]3CC[C@@H](OC(=O)NC(C)(C)C)C3)[nH]n2)c1 [Example 319, (1R,3S)-3-[3-({[5-methoxy-2-(methylsulfonyl)phenyl]acetyl}amino)-1H-pyrazol-5-yl]cyclopentyl tert-butylcarbamate]",9.41,6.91
"Cc1ccc(CC(=O)Nc2cc([C@H]3CC[C@@H](OC(=O)NC4(C)CC4)C3)[nH]n2)nc1 [Example 424, (1R,3S)-3-(3-{[(5-methylpyridin-2-yl)acetyl]amino}-1H-pyrazol-5-yl)cyclopentyl (1-methylcyclopropyl)carbamate]",9.29,7.84
CC1(NC(=O)O[C@@H]2CC[C@H](c3cc(NC(=O)Cc4cc(Cl)ccn4)n[nH]3)C2)CC1 [Example 129],9.70,7.50
"C[C@H]1CCN1C(=O)O[C@@H]1CC[C@H](c2cc(NC(=O)c3cnnn3C)n[nH]2)C1 [Example 586, (1R,3S)-3-(3-{[(1-methyl-1H-1,2,3-triazol-5-yl)carbonyl]amino}-1H-pyrazol-5-yl)cyclopentyl (2S)-2-methylazetidine-1-carboxylate]",9.06,7.29
"CC[C@H](C)CNC(=O)O[C@@H]1CC[C@H](c2cc(NC(=O)Cc3ccno3)n[nH]2)C1 [Example 415, (1R,3S)-3-{3-[(1,2-oxazol-5-ylacetyl)amino]-1H-pyrazol-5-yl}cyclopentyl[(2S)-2-methylbutyl]carbamate]",8.83,7.58
CCCNC(=O)O[C@H]1CC[C@@H](c2cc(NC(=O)Cc3cnc(C)s3)n[nH]2)C1 [Example 22],9.64,< 6.72
"CC(C)NC(=O)O[C@H]1CC[C@@H](c2cc(NC(=O)Cc3ccno3)n[nH]2)C1 [Example 263, (1S,3R)-3-{3-[(1,2-oxazol-5-ylacetyl)amino]-1H-pyrazol-5-yl}cyclopentyl propan-2-ylcarbamate]",9.28,7.50
"Cn1cc(CC(=O)Nc2cc([C@H]3CC[C@@H](OC(=O)NC4(C)CCOCC4)C3)[nH]n2)cn1 [Example 506, (1R,3S)-3-(3-{[(1-methyl-1H-pyrazol-4-yl)acetyl]amino}-1H-pyrazol-5-yl)cyclopentyl (4-methyltetrahydro-2H-pyran-4-yl)carbamate]",9.12,7.11
"CCN(C)C(=O)O[C@@H]1CC[C@H](c2cc(NC(=O)Cc3ccc(C)nc3)n[nH]2)C1 [Example 237, (1R,3S)-3-(3-{[(6-methylpyridin-3-yl)acetyl]amino}-1H-pyrazol-5-yl)cyclopentyl ethyl(methyl)carbamate]",9.19,8.28
"CCCNC(=O)O[C@H]1CC[C@@H](c2cc(NC(=O)c3ccc(OC)nc3)n[nH]2)C1 [Example 182, (1S,3R)-3-(3-{[(6-methoxypyridin-3-yl)carbonyl]amino}-1H-pyrazol-5-yl)cyclopentyl propylcarbamate]",9.09,7.04
CC[C@H](C)NC(=O)O[C@@H]1CC[C@H](c2cc(NC(=O)Cc3ccc(C)cc3S(C)(=O)=O)n[nH]2)C1 [Example 45],9.96,7.21
